Test results published in US20200362380A1, “Novel Biomolecule and Methods of Manufacturing Thereof” (priority 2018, published 2020).

Tested on: plants
Test: auxin effect on plants (media based agriculture)
Assay type: in vivo
Conditions: media based agriculture with and without soil; statement in words only
Source text: The resulting monomer can be leached through the media column and recuperated in pure form after filtering out any bacteria using appropriate filtration such as diatomaceous earth or filter paper. This can also be carried out in media based agriculture both with and without soil.

3-4 deoxy-glucosamine [monomer]
auxin effect on plants: pronounced auxin effect
